Columns and labels:
[1] = molecular target: T1, M1-type muscarinic cholinergic receptor (Rattus norvegicus, UniProt P08482); test: Test for affinity for the M1-type muscarinic cholinergic receptor (displacement of [3H]pirenzepine); format: binding; details: for r = (M2/M1), ratio of the IC50 values (selectivity): M2 IC50 (guinea-pig ileum) / M1 IC50 (rat hippocampus); for IC50: homogenate of rat hippocampus, [3H]PZ 1 nM, 2 h at 4° C., pH 7.40
T1 sequence (P08482 1-460): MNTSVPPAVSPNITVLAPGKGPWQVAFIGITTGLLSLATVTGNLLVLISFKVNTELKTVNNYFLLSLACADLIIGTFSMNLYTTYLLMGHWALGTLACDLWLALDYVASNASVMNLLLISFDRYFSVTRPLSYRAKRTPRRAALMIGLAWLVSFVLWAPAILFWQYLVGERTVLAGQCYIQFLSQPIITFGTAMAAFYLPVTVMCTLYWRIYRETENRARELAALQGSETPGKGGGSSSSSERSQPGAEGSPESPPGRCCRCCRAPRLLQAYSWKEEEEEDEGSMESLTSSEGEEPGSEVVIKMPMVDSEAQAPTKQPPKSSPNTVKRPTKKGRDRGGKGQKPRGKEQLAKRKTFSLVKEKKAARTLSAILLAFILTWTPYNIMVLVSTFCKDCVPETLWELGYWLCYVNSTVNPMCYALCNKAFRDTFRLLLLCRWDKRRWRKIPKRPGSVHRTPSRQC
Method: (A) Test for Affinity for the M1 -Type Muscarinic Cholinergic Receptor
The interaction of the molecules with M1 -type muscarinic receptors was studied by in vitro measurement, on a homogenate of rat hippocampus, of the displacement of tritiated pirenzepine ([^3 H]PZ) from its specific binding sites. Aliquots (10 μl) of a 5% (w/v) homogenate of rat hippocampus in an Na2 HPO4 buffer (50 mM, pH 7.40) are incubated for 2 h at 4° C. in the presence of [^3 H]PZ (76 Ci/nmol; final concentration: 1 nM) and increasing concentrations of products to be studied. The final volume is 2 ml. The reaction is stopped by centrifugation for 10 min at 50,000×g. After decantation and washing of the residues, the bound radioactivity is counted by liquid scintillation. The non-specific binding is determined in the presence of 10 μmol/l of atropine sulfate. The 50% inhibitory concentration (IC50) is determined graphically (Ref.: Watson J. D., Roeskoe W. R. and Yamamura H. I., Life Sci., 31, 2019-2029, 1982).

[2] = molecular target: T2, M2-type muscarinic cholinergic receptor (Cavia porcellus, UniProt H0VRN8); test: Test for affinity for the M2-type muscarinic cholinergic receptor (displacement of [3H]N-methylscopolamine); format: binding; details: homogenate of smooth muscle of guinea-pig ileum, [3H]NMS 0.3 nM, 20 min at 30° C., pH 7.5
T2 construct: on a homogenate of smooth muscle of guinea-pig ileum; from tissue; host or cells: guinea-pig ileum smooth muscle homogenate
T2 sequence (H0VRN8 1-466): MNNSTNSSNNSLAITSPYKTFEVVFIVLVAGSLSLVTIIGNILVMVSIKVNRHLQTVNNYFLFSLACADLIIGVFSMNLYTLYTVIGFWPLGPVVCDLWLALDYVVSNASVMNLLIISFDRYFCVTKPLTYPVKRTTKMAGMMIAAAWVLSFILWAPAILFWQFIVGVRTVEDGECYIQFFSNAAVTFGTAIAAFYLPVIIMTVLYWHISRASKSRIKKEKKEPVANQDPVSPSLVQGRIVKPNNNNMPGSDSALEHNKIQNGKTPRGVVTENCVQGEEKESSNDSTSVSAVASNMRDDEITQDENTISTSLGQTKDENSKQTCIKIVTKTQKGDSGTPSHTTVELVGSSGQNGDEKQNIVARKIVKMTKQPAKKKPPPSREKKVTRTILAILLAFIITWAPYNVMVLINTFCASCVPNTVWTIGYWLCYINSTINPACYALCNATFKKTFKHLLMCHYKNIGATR
Description: The M1 -type receptors are concentrated in certain areas of the brain, such as the hippocampus, the cerebral cortex and the striatum, and also in the sympathetic ganglia. These binding sites can be selectivity labeled with [^3 H] pirenzepine ([^3 H]PZ). The M2 -type receptors predominate in the heart and ileum and can be labeled with [^3 H] N-methylscopolamine ([^3 H]NMS). To determine the selectivity of the products of the invention towards the M1 and M2 sites, we studied their interaction in vitro with [^3 H]PZ and [^3 H]NMS bound with a high affinity to membranes of rat hippocampus and membranes of smooth muscle of guinea-pig ileum, respectively.
(B) Test for Affinity for the M2 -Type Muscarinic Cholinergic Receptor
The interaction with M2 -type muscarinic receptors was studied by in vitro measurement, on a homogenate of smooth muscle of guinea-pig ileum, of the displacement of tritiated N-methylscopolamine ([^3 H]NMS) from its specific binding sites. Aliquots (50 μl) of a 0.625% (w/v) homogenate of smooth muscle of guinea-pig ileum in MEPES buffer (20 mM) containing NaCl (100 mM) and MgCl2 (10 mM) (final pH: 7.5) are incubated for 20 min at 30° C. in the presence of [^3 H]NMS ([…]; final concentration: 0.3 nM) and increasing concentrations of products to be tested. The final volume is 1 ml. The reaction is stopped by centrifugation for 5 min at 15,000×g. The non-specific binding is determined in the presence of 10 μmol/l of atropine sulfate. (Ref.: Hammer R., Berrie C. P., Birdsall N. I. M., Burgen A. S. V. and Hulme E. C., Nature, 283, 90-92, 1980; Hulme E. C., Birdsall N. I. M., Burgen A. S. V. and Mettha P., Mol. Pharmacol., 14, 737-750, 1978).
Table 2 indicates the affinities of the products of the invention for M1 and M2 receptors. The results are expressed as 50% inhibitory concentrations (IC50), i.e. the concentration (in μM) which causes a 50% displacement of the tritiated ligand bound to the membrane receptors. The IC50 for displacement of ^3 H-pirenzepine represents the affinity for the M1 receptor; the IC50 for displacement of ^3 H-NMS represents the affinity for the M2 receptor.

[3] = tested on: M1 central muscarinic cholinergic receptors; test: Antagonism of rotational behavior induced by intrastriatal injection of pirenzepine in mice; format: in vivo, mice (Swiss, CD 1, female); details: i.p., 15 minutes before pirenzepine, * p<0.05, ** p<0.01 vs control animals
Method: Pirenzepine (PZ) is a specific antagonist of M1 central muscarinic cholinergic receptors. The intrastriatal injection of PZ into mice induces rotational behavior. The antagonism of this behavior by the products according to the invention was studied. The products according to the invention are injected intraperitoneally (i.p.) after solubilization in distilled water or suspension in a 5% solution of gum arabic. The control animals receive an injection of the pure solvent under the same conditions. The animals used are female mice (Swiss, CD 1, Charles River, France) with a body weight of between 25 and 30 grams. Pirenzepine is dissolved in a phosphate buffer; the pH of the solution is 6. The products to be studied or their solvents are injected intraperitoneally, in a volume of 0.4 ml per 20 g of body weight, 15 minutes before a direct injection of pirenzepine at a dose of […] into the right striatum of the mouse, according to the method described by P. WORMS et al. in Eur. J. Pharmacol., 1986, 121, 395-401. The number of contralateral rotations (rotations in the opposite direction to the side injected) was counted for three 2-minute periods after the injection of pirenzepine: minutes 2 to 4, 8 to 10 and 13 to 15. Each treatment includes 1 to 3 doses and 10 animals per dose. For each treatment, the total number of rotations and the percentage antagonism compared with the control group are calculated.

Structure (SMILES) | r = (M2/M1), ratio of the IC50 values (selectivity) [1] | IC50 [1] [µM] | IC50 [2] [µM] | Pirenzepine antagonism (percentage antagonism compared with control group, rotations) ([3]; 3 mg/kg) [%] | Pirenzepine antagonism (percentage antagonism compared with control group, rotations) ([3]; 10 mg/kg) [%] | Pirenzepine antagonism (percentage antagonism compared with control group, rotations) ([3]; 30 mg/kg) [%]
Cl.Cl.c1ccc2c(c1)oc1cc(NCCN3CCOCC3)nnc12 [SR 44288 A, 2-(2-Morpholinoethylamino)-9-oxa-3,4-diazafluorene dihydrochloride] | > 33 | 3 | > 100 | -32 | -52 | -100
Cl.Cl.c1ccc2c(c1)sc1cc(NCCN3CCOCC3)nnc12 [SR 44289 A, 2-(2-Morpholinoethylamino)-9-thia-3,4-diazafluorene dihydrochloride] | 28 | 3.5 | 100 | -42 | -85 | –
CCN(CC)CCNc1cc2oc3ccccc3c2nn1 [SR 45040 A] | 64 | 0.7 | 45 | -47 | – | –
CCN(CC)CCCNc1cc2oc3ccccc3c2nn1 [SR 45041 A] | 100 | 0.1 | 10 | -72 | – | –
CCN1CCCC1CNc1cc2oc3ccccc3c2nn1 (centres unmarked) [SR 45042 A] | 500 | 0.1 | 50 | -52 | – | –
CCN(CC)CCNc1cc2c(nn1)-c1ccccc1SC2.Cl.Cl [SR 96056 A, 2-(2-Diethylaminoethylamino)-9,10-dihydro-9-thia-3,4-diazaphenanthrene dihydrochloride] | 24 | 0.15 | 3.6 | -14 | -55 | -79
Cl.Cl.c1ccc2c(c1)OCc1cc(NCCN3CCOCC3)nnc1-2 [SR 96094 A, 2-(2-Morpholinoethylamino)-9,10-dihydro-9-oxa-3,4-diazaphenanthrene dihydrochloride] | > 27 | 3.6 | > 100 | -8 | -20 | -85
